Measured values reported in patent publication US12077503B2, “Substituted cyclic amides and their use as herbicides” (FMC CORPORATION, priority 2015, dated 2024).

Assays:
Assay type in all cases: in vivo
[1] = test system: velvetleaf (Abutilon theophrasti); assay: Test A postemergence
Outline: (§1)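 Each rating is a visual injury score from 0 to 100 given about 10 d after treatment, judged against untreated controls kept alongside in the greenhouse. In loam soil–sand blend, seeds got a preemergence directed soil spray, while postemergence plants were 2 to 10 cm tall at spraying.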

[2] = test system: crabgrass, large (Digitaria sanguinalis); assay: Test A postemergence
Outline: as §1

[3] = test system: wheat (Triticum aestivum); assay: Test A postemergence
Outline: as §1

corn (Zea mays) [4] = assay: Test A postemergence
Outline: as §1

[5] = test system: barnyardgrass (Echinochloa crus-galli); assay: Test A postemergence
Outline: as §1

[6] = test system: pigweed (Amaranthus retroflexus); assay: Test A postemergence
Outline: as §1

[7] = test system: giant foxtail (Setaria faberii); assay: Test A postemergence
Outline: as §1

[8] = test system: morningglory (Ipomoea spp.); assay: Test A postemergence
Outline: as §1

rice (Oryra sativa) = assay: Test B flooded paddy test; settings: Flood, 0 to 100 scale where 0 is no effect and 100 is complete control, 13 to 15 d
Outline: (§2)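 Response scored visually against untreated controls, 0 = no effect and 100 = complete control, 13–15 d after treatment in the greenhouse. Compounds added to paddy water held 3 cm above soil surface. Treatment given at 2-leaf stage.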

[9] = test system: barnyardgrass (Echinochloa crus-galli); assay: Test B flooded paddy test; settings: Flood, 0 to 100 scale where 0 is no effect and 100 is complete control, 13 to 15 d
Outline: as §2

[10] = test system: sedge, umbrella (small-flower umbrella sedge, Cyperus difformis); assay: Test B flooded paddy test; settings: Flood, 0 to 100 scale where 0 is no effect and 100 is complete control, 13 to 15 d
Outline: as §2

[11] = test system: ducksalad (Heteranthera limosa); assay: Test B flooded paddy test; settings: Flood, 0 to 100 scale where 0 is no effect and 100 is complete control, 13 to 15 d
Outline: as §2

[12] = test system: velvetleaf (Abutilon theophrasti); assay: Test A preemergence; settings: for Plant response rating, Velvetleaf: 125 g ai/ha, preemergence, 0 to 100 scale (0 no effect, 100 complete control); for Velvetleaf plant response rating (0 to 100 scale): Preemergence, 500 g ai/ha, 0 is no effect, 100 is complete control
Outline: as §1

[13] = test system: crabgrass, large (Digitaria sanguinalis); assay: Test A preemergence; settings: for Plant response rating, Crabgrass, Large: 125 g ai/ha, preemergence, 0 to 100 scale (0 no effect, 100 complete control); for Crabgrass, Large plant response rating (0 to 100 scale): Preemergence, 500 g ai/ha, 0 is no effect, 100 is complete control
Outline: as §1

[14] = test system: wheat (Triticum aestivum); assay: Test A preemergence; settings: for Plant response rating, Wheat: 125 g ai/ha, preemergence, 0 to 100 scale (0 no effect, 100 complete control); for Wheat plant response rating (0 to 100 scale): Preemergence, 500 g ai/ha, 0 is no effect, 100 is complete control
Outline: as §1

corn (Zea mays) [15] = assay: Test A preemergence; settings: for Plant response rating, Corn: 125 g ai/ha, preemergence, 0 to 100 scale (0 no effect, 100 complete control); for Corn plant response rating (0 to 100 scale): Preemergence, 500 g ai/ha, 0 is no effect, 100 is complete control
Outline: as §1

[16] = test system: barnyardgrass (Echinochloa crus-galli); assay: Test A preemergence; settings: for Plant response rating, Barnyardgrass: 125 g ai/ha, preemergence, 0 to 100 scale (0 no effect, 100 complete control); for Barnyardgrass plant response rating (0 to 100 scale): Preemergence, 500 g ai/ha, 0 is no effect, 100 is complete control
Outline: as §1

[17] = test system: pigweed (Amaranthus retroflexus); assay: Test A preemergence; settings: for Plant response rating, Pigweed: 125 g ai/ha, preemergence, 0 to 100 scale (0 no effect, 100 complete control); for Pigweed plant response rating (0 to 100 scale): Preemergence, 500 g ai/ha, 0 is no effect, 100 is complete control
[18] = test system: giant foxtail (Setaria faberii); assay: Test A preemergence; settings: for Plant response rating, Foxtail, Giant: 125 g ai/ha, preemergence, 0 to 100 scale (0 no effect, 100 complete control); for Foxtail, Giant plant response rating (0 to 100 scale): Preemergence, 500 g ai/ha, 0 is no effect, 100 is complete control
Outline: as §1

[19] = test system: morningglory (Ipomoea spp.); assay: Test A preemergence; settings: for Plant response rating, Morningglory: 125 g ai/ha, preemergence, 0 to 100 scale (0 no effect, 100 complete control); for Morningglory plant response rating (0 to 100 scale): Preemergence, 500 g ai/ha, 0 is no effect, 100 is complete control
Outline: as §1

[20] = 500 g ai/ha, postemergence, 0 to 100 scale, 0 no effect, 100 complete control
[21] = Postemergence, 125 g ai/ha, visual injury, 0 to 100 scale (0 no effect, 100 complete control), approx. 10 d

Row | SMILES | Plant response rating, Velvetleaf [1, 20] | Plant response rating, Velvetleaf [1, 21] | Plant response rating, Crabgrass, Large [2, 20] | Plant response rating, Crabgrass, Large [2, 21] | Plant response rating, Wheat [3, 20] | Plant response rating, Wheat [3, 21] | Plant response rating, Corn (corn (Zea mays) [4]; [20]) | Plant response rating, Corn (corn (Zea mays) [4]; [21]) | Plant response rating, Barnyardgrass [5, 20] | Plant response rating, Barnyardgrass [5, 21] | Plant response rating, Pigweed [6, 20] | Plant response rating, Pigweed [6, 21] | Plant response rating, Foxtail, Giant [7, 20] | Plant response rating, Foxtail, Giant [7, 21] | Plant response rating, Morningglory [8, 20] | Plant response rating, Morningglory [8, 21] | Plant response rating, Velvetleaf [12] | Velvetleaf plant response rating (0 to 100 scale) [12] | Plant response rating, Crabgrass, Large [13] | Crabgrass, Large plant response rating (0 to 100 scale) [13] | also measured
1 | Cn1nccc1NC(=O)C1C(=O)NCC1c1ccc(F)c(F)c1 (racemic) [Compound 362] | 0 | 0 | 0 | 0 | 0 | 0 | 0 | 0 | 0 | 0 | 0 | 0 | 0 | 0 | 0 | 0 | 0 | 0 | 0 | 0 | Plant response rating, Rice (rice (Oryra sativa); 250 g ai/ha): 0; Plant response rating, Barnyardgrass ([9]; 250 g ai/ha): 0; Plant response rating, Sedge, Umbrella ([10]; 250 g ai/ha): 0; Plant response rating, Ducksalad ([11]; 250 g ai/ha): 0; Plant response rating, Wheat [14]: 0; Wheat plant response rating (0 to 100 scale) [14]: 0; Plant response rating, Corn (corn (Zea mays) [15]): 0; Corn plant response rating (0 to 100 scale) (corn (Zea mays) [15]): 0; Plant response rating, Barnyardgrass [16]: 0; Barnyardgrass plant response rating (0 to 100 scale) [16]: 0; Plant response rating, Pigweed [17]: 0; Pigweed plant response rating (0 to 100 scale) [17]: 0; Plant response rating, Foxtail, Giant [18]: 0; Foxtail, Giant plant response rating (0 to 100 scale) [18]: 0; Plant response rating, Morningglory [19]: 0; Morningglory plant response rating (0 to 100 scale) [19]: 0
2 | O=C1NCC(c2ccc(-c3ccccc3)cc2)C1C(=O)Nc1ccccc1F (racemic) [Compound 365] | 0 | 0 | 0 | 0 | 0 | 0 | 0 | 0 | 0 | 0 | 0 | 0 | 0 | 0 | 0 | 0 | 0 | 0 | 0 | 0 | Plant response rating, Rice (rice (Oryra sativa); 1000 g ai/ha): 0; Plant response rating, Barnyardgrass ([9]; 1000 g ai/ha): 0; Plant response rating, Sedge, Umbrella ([10]; 1000 g ai/ha): 0; Plant response rating, Ducksalad ([11]; 1000 g ai/ha): 0; Plant response rating, Wheat [14]: 0; Wheat plant response rating (0 to 100 scale) [14]: 0; Plant response rating, Corn (corn (Zea mays) [15]): 0; Corn plant response rating (0 to 100 scale) (corn (Zea mays) [15]): 0; Plant response rating, Barnyardgrass [16]: 0; Barnyardgrass plant response rating (0 to 100 scale) [16]: 0; Plant response rating, Pigweed [17]: 0; Pigweed plant response rating (0 to 100 scale) [17]: 0; Plant response rating, Foxtail, Giant [18]: 0; Foxtail, Giant plant response rating (0 to 100 scale) [18]: 0; Plant response rating, Morningglory [19]: 0; Morningglory plant response rating (0 to 100 scale) [19]: 0
3 | O=C1NCC(c2ccc(-c3ccccc3)cc2)C1C(=O)Nc1cccc(F)c1F (racemic) [Compound 366] | 0 | 0 | 0 | 0 | 0 | 0 | 0 | 0 | 0 | 0 | 0 | 0 | 0 | 0 | 0 | 0 | 0 | 0 | 0 | 0 | Plant response rating, Rice (rice (Oryra sativa); 1000 g ai/ha): 0; Plant response rating, Barnyardgrass ([9]; 1000 g ai/ha): 0; Plant response rating, Sedge, Umbrella ([10]; 1000 g ai/ha): 0; Plant response rating, Ducksalad ([11]; 1000 g ai/ha): 0; Plant response rating, Wheat [14]: 0; Wheat plant response rating (0 to 100 scale) [14]: 0; Plant response rating, Corn (corn (Zea mays) [15]): 0; Corn plant response rating (0 to 100 scale) (corn (Zea mays) [15]): 0; Plant response rating, Barnyardgrass [16]: 0; Barnyardgrass plant response rating (0 to 100 scale) [16]: 0; Plant response rating, Pigweed [17]: 0; Pigweed plant response rating (0 to 100 scale) [17]: 0; Plant response rating, Foxtail, Giant [18]: 0; Foxtail, Giant plant response rating (0 to 100 scale) [18]: 0; Plant response rating, Morningglory [19]: 0; Morningglory plant response rating (0 to 100 scale) [19]: 0
4 | Nc1cccc(C2CNC(=O)C2C(=O)Nc2cccc(F)c2F)c1 (stereo not drawn) [Compound 354] | 0 | 0 | 0 | 0 | 0 | 0 | 0 | 0 | 0 | 0 | 0 | 0 | 0 | 0 | 0 | 0 | 0 | 0 | 0 | 0 | Plant response rating, Rice (rice (Oryra sativa); 250 g ai/ha): 20; Plant response rating, Barnyardgrass ([9]; 250 g ai/ha): 0; Plant response rating, Sedge, Umbrella ([10]; 250 g ai/ha): 20; Plant response rating, Ducksalad ([11]; 250 g ai/ha): 0; Plant response rating, Wheat [14]: 0; Wheat plant response rating (0 to 100 scale) [14]: 0; Plant response rating, Corn (corn (Zea mays) [15]): 0; Corn plant response rating (0 to 100 scale) (corn (Zea mays) [15]): 0; Plant response rating, Barnyardgrass [16]: 0; Barnyardgrass plant response rating (0 to 100 scale) [16]: 0; Plant response rating, Pigweed [17]: 0; Pigweed plant response rating (0 to 100 scale) [17]: 0; Plant response rating, Foxtail, Giant [18]: 0; Foxtail, Giant plant response rating (0 to 100 scale) [18]: 0; Plant response rating, Morningglory [19]: 0; Morningglory plant response rating (0 to 100 scale) [19]: 0
